Source: US20080319078A1, “Triphenylethylene Compounds Useful as Selective Estrogen Receptor Modulators” (priority 2005, published 2008)

In the case of CCC(=C(c1ccc(O)cc1)c1ccc(O)cc1)c1ccc(OCC(=O)O)c(OC)c1 [Example 4, {[4-[1-Ethyl-2,2-bis(4-hydroxyphenyl)ethenyl]-2-(methyloxy)phenyl]oxy}acetic acid], the melting point is reported as 253 to 254 °C.
